Read-outs that look alike come from different tables or passages of the source.
Legend:
[1] = biological target: T1, human cannabinoid CB1 receptor (Homo sapiens, UniProt P21554); assay: Cannabinoid CB1 antagonistic activity, forskolin-induced cAMP accumulation in CHO cells; assay type: cell-based; design: expressed in transfected cells; host or cells: CHO cells
Protocol: The cannabinoid CB1 antagonistic activity of compounds of the invention was determined by functional studies using CHO cells in which human cannabinoid CB1 receptors were stably expressed. Adenylyl cyclase was stimulated using forskolin and measured by quantifying the amount of accumulated cyclic AMP. Concomitant activation of CB1 receptors by CB1 receptor agonists (e.g. CP-55,940 or (R)-WIN-55,212–2) can attenuate the forskolin-induced accumulation of cAMP in a concentration-dependent manner. This CB1 receptor-mediated response can be antagonized by CB1 receptor antagonists such as the compounds of the invention.

[2] = biological target: T1, human cannabinoid CB1 receptor; assay: biochemical; assay type: binding; design: expressed in transfected cells; host or cells: Chinese hamster ovary (CHO) cells, membrane preparation; details: [3H]CP-55,940 radioligand, CHO cell membranes stably transfected with human CB1
Protocol: After incubation of a freshly prepared cell membrane preparation with the [^3H]-ligand, with or without addition of compounds of the invention, separation of bound and free ligand was performed by filtration over glassfiber filters. Radioactivity on the filter was measured by liquid scintillation counting.

[3] = antagonism of CB1 agonist (e.g. CP-55,940 or (R)-WIN-55,212-2) effect on forskolin-induced cAMP accumulation, CHO cells expressing human CB1, read-out: hCB1 pA2 (converted)

T1 sequence (P21554 whole entry): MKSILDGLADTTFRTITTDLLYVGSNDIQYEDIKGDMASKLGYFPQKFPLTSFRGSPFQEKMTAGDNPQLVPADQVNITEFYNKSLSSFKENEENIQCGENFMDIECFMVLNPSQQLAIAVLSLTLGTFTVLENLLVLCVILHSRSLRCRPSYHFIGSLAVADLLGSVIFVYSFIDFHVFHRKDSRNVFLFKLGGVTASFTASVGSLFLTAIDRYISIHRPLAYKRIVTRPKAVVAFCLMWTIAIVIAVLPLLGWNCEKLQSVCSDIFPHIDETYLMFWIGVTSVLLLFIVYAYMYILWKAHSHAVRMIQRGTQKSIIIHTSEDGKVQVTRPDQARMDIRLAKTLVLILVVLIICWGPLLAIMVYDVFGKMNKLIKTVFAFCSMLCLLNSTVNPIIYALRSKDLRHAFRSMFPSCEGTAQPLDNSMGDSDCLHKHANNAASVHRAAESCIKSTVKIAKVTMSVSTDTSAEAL

**Q.** With `O=C(NN1CCCCC1)c1cn(-c2ccc(Cl)cc2)c(-c2ccc(Cl)cc2Cl)n1` [Example 1, 1-(4-chlorophenyl)-2-(2,4-dichlorophenyl)-N-(piperidin-1-yl)-1H-imidazole-4-carboxamide] as the compound, how does the “hCB1 pA2” value ([1]; antagonism of CB1 agonist (e.g. CP-55,940 or (R)-WIN-55,212-2) effect on forskolin-induced cAMP accumulation, CHO cells expressing human CB1) read?
**A.** 8.2

**Q.** What about the Ki ([2]; hCB1 pKi) of the same compound?
**A.** 12.6 nM

**Q.** Which Kb [1, 3] does the source give for `O=C(NN1CCCC1)c1cn(-c2ccc(Cl)cc2)c(-c2ccc(Cl)cc2Cl)n1` [Example 2, 1-(4-Chlorophenyl)-2-(2,4-dichlorophenyl)-N-(pyrrolidin-1-yl)-1H-imidazole-4-carboxamide] here?
**A.** 25.1 nM

**Q.** What about the Ki ([2]; hCB1 pKi) of the same compound?
**A.** 100 nM

**Q.** Which Kb [1] does the source give for `CC(C)(C)ONC(=O)c1cn(-c2ccc(Cl)cc2)c(-c2ccc(Cl)cc2Cl)n1` [Example 3, N-(t-Butoxy)-1-(4-chlorophenyl)-2-(2,4-dichlorophenyl)-1H-imidazole-4-carboxamide] here?
**A.** 31.6 nM

**Q.** What about the Ki ([2]; read-out: hCB1 pKi (converted)) of the same compound?
**A.** 158 nM

**Q.** Which results are given for `O=C(NC1CCCCC1)c1cn(-c2ccc(Cl)cc2)c(-c2ccc(Cl)cc2Cl)n1` [Example 5, 1-(4-Chlorophenyl)-N-cyclohexyl-2-(2,4-dichlorophenyl)-1H-imidazole-4-carboxamide]?
**A.** Kb [1, 3]: 7.94 nM; Ki ([2]; hCB1 pKi): 79.4 nM

**Q.** For `Cc1c(C(=O)NOC(C)(C)C)nc(-c2ccc(Cl)cc2Cl)n1-c1ccc(Br)cc1` [Example 16, 1-(4-Bromophenyl)-N-(t-butoxy)-2-(2,4-dichlorophenyl)-5-methyl-1H-imidazole-4-carboxamide], which Kb [1] is on record?
**A.** 15.8 nM

**Q.** With `CCCCCNC(=O)c1nc(-c2ccc(Cl)cc2F)n(-c2ccc(Cl)cc2)c1C` [Example 67, 1-(4-Chlorophenyl)-2-(2-fluoro-4-chlorophenyl)-5-methyl-N-(n-pentyl)-1H-imidazole-4-carboxamide] as the compound, how does the melting point read?
**A.** 115 °C

**Q.** What about the Ki ([2]; hCB1 pKi) of the same compound?
**A.** 398 nM

**Q.** With `Cc1c(C(=O)NC2CCCCC2)nc(-c2ccc(Cl)cc2F)n1-c1ccc(Cl)cc1` [Example 68, 1-(4-Chlorophenyl)-N-(cyclohexyl)-2-(2-fluoro-4-chlorophenyl)-5-methyl-1H-imidazole-4-carboxamide] as the compound, how does the melting point read?
**A.** 188 °C

**Q.** And the Ki ([2]; hCB1 pKi)?
**A.** 200 nM

**Q.** What does the source list for `Cc1ccc(-c2nc(C(=O)NC3CCCCC3)c(C)n2-c2ccc(Cl)cc2)n1C` [Example 69, 1-(4-Chlorophenyl)-N-(cyclohexyl)-2-(1,5-dimethyl-1H-pyrrol-2-yl)-5-methyl-1H-imidazole-4-carboxamide]?
**A.** melting point: 188 to 189 °C; Ki ([2]; hCB1 pKi): 39.8 nM

**Q.** Which results are given for `Cc1ccc(-c2nc(C(=O)NN3CCCCC3)c(C)n2-c2ccc(Cl)cc2)n1C` [Example 70, 1-(4-Chlorophenyl)-2-(1,5-dimethyl-1H-pyrrol-2-yl)-5-methyl-N-(piperidin-1-yl)-1H-imidazole-4-carboxamide]?
**A.** melting point: 208 to 210 °C; Ki ([2]; hCB1 pKi): 5.01 nM

**Q.** With `Cc1c(C(=O)NN2CCCCC2)nc(-c2ccccc2Cl)n1-c1cccc(F)c1` [Example 71, 2-(2-Chlorophenyl)-1-(3-fluorophenyl)-5-methyl-N-(piperidin-1-yl)-1H-imidazole-4-carboxamide] as the compound, how does the melting point read?
**A.** 236 to 238 °C

**Q.** What about the Ki ([2]; hCB1 pKi) of the same compound?
**A.** 39.8 nM

**Q.** Which results are given for `Cc1c(C(=O)NC2CCCCC2)nc(-c2ccccc2Cl)n1-c1cccc(F)c1` [Example 73, 2-(2-Chlorophenyl)-N-cyclohexyl-1-(3-fluorophenyl)-5-methyl-1H-imidazole-4-carboxamide]?
**A.** melting point: 180 to 182.5 °C; Ki ([2]; hCB1 pKi): 12.6 nM

**Q.** Which melting point does the source give for `Cc1c(C(=O)NCCc2ccc(F)cc2)nc(-c2ccccc2Cl)n1-c1cccc(F)c1` [Example 74, 2-(2-Chlorophenyl)-1-(3-fluorophenyl)-N-(2-(4-fluorophenyl)ethyl)-5-methyl-1H-imidazole-4-carboxamide] here?
**A.** 123.5 to 126 °C

**Q.** What about the Ki ([2]; read-out: hCB1 pKi (converted)) of the same compound?
**A.** 398 nM

**Q.** Which results are given for `CCc1c(C(=O)NN2CCCCC2)nc(-c2ccc(Cl)cc2Cl)n1-c1ccc(Cl)cn1` [Example 75, 1-(5-Chloropyridin-2-yl)-2-(2,4-dichlorophenyl)-5-ethyl-N-(piperidin-1-yl)-1H-imidazole-4-carboxamide]?
**A.** melting point: 146 °C; Ki ([2]; hCB1 pKi): 100 nM

**Q.** With `CCc1c(C(=O)NN2CCOCC2)nc(-c2ccc(Cl)cc2Cl)n1-c1ccc(Cl)cn1` [Example 76, 1-(5-Chloropyridin-2-yl)-2-(2,4-dichlorophenyl)-5-ethyl-N-(4-morpholinyl)-1H-imidazole-4-carboxamide] as the compound, how does the melting point read?
**A.** 223 °C

**Q.** And the Ki ([2]; read-out: hCB1 pKi (converted))?
**A.** 251 nM

**Q.** Which melting point does the source give for `CCc1c(C(=O)NN2CCCCCC2)nc(-c2ccc(Cl)cc2Cl)n1-c1ccc(Cl)cn1` [Example 77, N-(1-Azepanyl)-1-(5-Chloropyridin-2-yl)-2-(2,4-dichlorophenyl)-5-ethyl-1H-imidazole-4-carboxamide] here?
**A.** 177 °C

**Q.** What about the Ki ([2]; hCB1 pKi) of the same compound?
**A.** 31.6 nM

**Q.** For `CCc1c(C(=O)NC2CCCCC2)nc(-c2ccc(Cl)cc2Cl)n1-c1ccc(Cl)cn1` [Example 78, 1-(5-Chloropyridin-2-yl)-N-cyclohexyl-2-(2,4-dichlorophenyl)-5-ethyl-1H-imidazole-4-carboxamide], which melting point is on record?
**A.** 149 °C

**Q.** What about the Ki ([2]; hCB1 pKi) of the same compound?
**A.** 3.16 nM

**Q.** With `Cc1c(C(=O)Nc2ccccc2)nc(-c2ccc(Cl)cc2Cl)n1-c1ccc(Cl)cc1` [Example 82, 1-(4-Chlorophenyl)-2-(2,4-dichlorophenyl)-5-methyl-N-phenyl-1H-imidazole-4-carboxamide] as the compound, how does the melting point read?
**A.** 91 to 95 °C

**Q.** And the Ki ([2]; hCB1 pKi)?
**A.** 2.51 nM

**Q.** With `Cc1c(C(=O)NOC2CCCCO2)nc(-c2ccc(Cl)cc2Cl)n1-c1ccc(Cl)cc1` (stereo not drawn) [Example 83, 1-(4-Chlorophenyl)-2-(2,4-dichlorophenyl)-5-methyl-N-(tetrahydro-2H-pyran-2-yloxy)-1H-imidazole-4-carboxamide] as the compound, how does the melting point read?
**A.** 128 to 133 °C

**Q.** What about the Ki ([2]; hCB1 pKi) of the same compound?
**A.** 3.98 nM

**Q.** For `Cc1c(C(=O)NCCF)nc(-c2ccc(Cl)cc2Cl)n1-c1ccc(Cl)cc1` [Example 85, 1-(4-Chlorophenyl)-2-(2,4-dichlorophenyl)-N-(2-fluoroethyl)-5-methyl-1H-imidazole-4-carboxamide], which melting point is on record?
**A.** 128 to 133 °C

**Q.** And the Ki ([2]; hCB1 pKi)?
**A.** 25.1 nM

**Q.** Which results are given for `Cc1c(C(=O)NCc2ccc(F)cc2)nc(-c2ccc(Cl)cc2Cl)n1-c1ccc(Cl)cc1` [Example 90, 1-(4-Chlorophenyl)-2-(2,4-dichlorophenyl)-N-(4-fluorobenzyl)-5-methyl-1H-imidazole-4-carboxamide]?
**A.** melting point: 165 to 166 °C; Ki ([2]; hCB1 pKi): 10 nM

**Q.** For `Cc1c(C(=O)NN2CCCCC2)nc(-c2cc(Cl)ccc2Cl)n1-c1ccccc1` [Example 95, 2-(2,5-Dichlorophenyl)-5-methyl-1-phenyl-N-(piperidin-1-yl)-1H-imidazole-4-carboxamide], which melting point is on record?
**A.** 227 °C

**Q.** And the Ki ([2]; hCB1 pKi)?
**A.** 63.1 nM

**Q.** Which melting point does the source give for `Cc1c(C(=O)NC2CCCCC2)nc(-c2cc(Cl)ccc2Cl)n1-c1ccccc1` [Example 96, N-Cyclohexyl-2-(2,5-dichlorophenyl)-5-methyl-1-phenyl-1H-imidazole-4-carboxamide] here?
**A.** 236 °C

**Q.** And the Ki ([2]; hCB1 pKi)?
**A.** 6.31 nM

**Q.** With `Cc1c(C(=O)Nc2cccc(C(F)(F)F)c2)nc(-c2ccc(Cl)cc2Cl)n1-c1ccc(Cl)cc1` [Example 104, 1-(4-Chlorophenyl)-2-(2,4-dichlorophenyl)-5-methyl-N-(3-(trifluoromethyl)phenyl)-1H-imidazole-4-carboxamide] as the compound, how does the melting point read?
**A.** 177 °C

**Q.** What about the Ki ([2]; hCB1 pKi) of the same compound?
**A.** 6.31 nM

**Q.** For `Cc1c(C(=O)NCc2cccc(C(F)(F)F)c2)nc(-c2ccc(Cl)cc2Cl)n1-c1ccc(Cl)cc1` [Example 105, 1-(4-Chlorophenyl)-2-(2,4-dichlorophenyl)-5-methyl-N-(3-(trifluoromethyl)benzyl)-1H-imidazole-4-carboxamide], which melting point is on record?
**A.** 138 to 140 °C

**Q.** And the Ki ([2]; hCB1 pKi)?
**A.** 31.6 nM

**Q.** Which results are given for `O=C(NC1CCCCC1)c1nc(-c2ccc(Cl)cc2Cl)n(-c2ccc(Cl)cc2)c1I` [Example 112, 1-(4-Chlorophenyl)-N-cyclohexyl-2-(2,4-dichlorophenyl)-5-iodo-1H-imidazole-4-carboxamide]?
**A.** melting point: 226 to 230 °C; Ki ([2]; hCB1 pKi): 6.31 nM

**Q.** For `N#Cc1c(C(=O)NC2CCCCC2)nc(-c2ccc(Cl)cc2Cl)n1-c1ccc(Cl)cc1` [Example 113, 1-(4-Chlorophenyl)-5-cyano-N-cyclohexyl-2-(2,4-dichlorophenyl)-1H-imidazole-4-carboxamide], which melting point is on record?
**A.** 157 to 158 °C

**Q.** What about the Ki ([2]; hCB1 pKi) of the same compound?
**A.** 15.8 nM

**Q.** For `O=C(NN1CCCCC1)c1nc(-c2ccc(Cl)cc2Cl)n(-c2ccc(Cl)cc2)c1CF` [Example 114, 1-(4-chlorophenyl)-2-(2,4-dichlorophenyl)-5-fluoromethyl-N-(piperidin-1-yl)-1H-imidazole-4-carboxamide], which melting point is on record?
**A.** 162 to 163 °C

**Q.** And the Ki ([2]; hCB1 pKi)?
**A.** 63.1 nM

**Q.** What does the source list for `O=C(NN1CCCCC1)c1nc(-c2ccc(Cl)cc2Cl)n(-c2ccc(Cl)cc2)c1CO` [Example 115, 1-(4-chlorophenyl)-2-(2,4-dichlorophenyl)-5-hydroxymethyl-N-(piperidin-1-yl)-1H-imidazole-4-carboxamide]?
**A.** melting point: 212 to 214 °C; Ki ([2]; hCB1 pKi): 31.6 nM

**Q.** With `CCc1c(C(=O)NN2CCCCC2)nc(-c2ccccc2Cl)n1-c1ccc(Cl)cn1` [Example 116, 1-(5-chloropyrid-2-yl)-2-(2-chlorophenyl)-5-ethyl-N-(piperidin-1-yl)-1H-imidazole-4-carboxamide] as the compound, how does the melting point read?
**A.** 217 to 219 °C

**Q.** What about the Ki ([2]; hCB1 pKi) of the same compound?
**A.** 12.6 nM

— patent US7109216B2 (priority 2001, dated 2006)
